Test results as given in patent publication US8114904B2, “Luminescence quenchers and fluorogenic probes for detection of reactive species” (Versitech Limited & Morningside Ventures Limited, priority 2008, dated 2012).

Tests used:
[1] = tested on: Murine J744.1 macrophages; test: Cell assay: detection of peroxynitrite in living cells by fluorescent microscopy; type: cell-based; conditions: for fluorescence observed in the absence of stimulants: J744.1 macrophages incubated with 20 μM probe for 1 hr
Experimental: (§1) Murine J744.1 macrophages (ATCC, USA) were used to investigate the potential of Compound 22 (acetate form of Compound 10) for the detection of peroxynitrite in living cells. J744.1 macrophages were cultured in Dulbecco's Modified Eagle's Medium (DMEM) (Gibco) containing 10% heat-inactivated fetal bovine serum (Gibco) supplemented with 100 U/ml of penicillin and 100 μg/ml streptomycin at 37° C., 5% CO2. They were subcultured by scraping and seeded on six-well plates according to manufacture's instruction. The growth medium was changed every two to three days. Cells were grown to confluence prior to experiment. Murine J744.1 macrophages were incubated with Compound 22 (20 μM) for 1 hr and then washed three times with PBS buffer.
as §1, with “12 and 12a” for “22 (acetate form of Compound 10)”, “12 or 12a” for “22”, “buffer. […] The fluorescence was induced after treatment with LPS (lipopolysaccharide, 1 μg/ml) for 4 hrs (FIG. 9D and FIG. 10B).” for “buffer.”

[2] = Emission spectra of the probe itself; type: physicochemical; conditions: 10 μM, 0.1 M phosphate buffer pH 7.4, excitation 520 nm, Hitachi F7000, 900 V
Experimental: Compound 10 obtained in Example 4 was dissolved in DMF to a concentration of 10 mM, and then the solution was diluted to 10 μM by 0.1 M phosphate buffer (pH 7.4). The fluorescence spectrum of the 10 μM solution of Compound 10 was measured using a Hitachi F2500 fluorescence spectrometer and the photomultiplier voltage was 700 V. The slit width was 2.5 nm for both excitation and emission. The measurement was carried out at an excitation wavelength of 520 nm. The results shown in FIG. 1 indicate that Compound 10 itself is non-fluorescent.
Compound 12 obtained in Example 5 was dissolved in DMF to a concentration of 1 mM, and then the solution was diluted to 1 μM by 0.1 M phosphate buffer (pH 7.4). The fluorescence spectrum of the 1 μM solution of Compound 12 was measured using a Hitachi F2500 fluorescence spectrometer and the photomultiplier voltage was 700 V. The slit width was 2.5 nm for both excitation and emission. The measurement was carried out at an excitation wavelength of 515 nm. The results shown in FIG. 4 indicate that Compound 12 itself is non-fluorescent.
Compound 14 obtained in Example 6 was dissolved in DMF to a concentration of 1 mM, and then the solution was diluted to 1 μM by 0.1 M phosphate buffer (pH 7.4). The fluorescence spectrum of the 1 μM solution of Compound 14 was measured using a Hitachi F2500 fluorescence spectrometer and the photomultiplier voltage was 700 V. The slit width was 2.5 nm for both excitation and emission. The measurement was carried out at an excitation wavelength of 515 nm. The results shown in FIG. 6 indicate that Compound 14 itself is non-fluorescent.
Compound 30 obtained in Example 7 was dissolved in DMF to a concentration of 10 mM, and then the solution was diluted to 10 μM by 0.1 M phosphate buffer (pH 7.4). The fluorescence spectrum of the 10 μM solution of Compound 30 was measured using a Hitachi F7000 fluorescence spectrometer and the photomultiplier voltage was 900 V. The slit width was 2.5 nm for both excitation and emission. The measurement was carried out at an excitation wavelength of 520 nm.

[3] = UV-visible absorption spectrum; type: physicochemical; conditions: 10 μM solution, pH 7.4 0.1 M phosphate buffer, 0.1% DMF
Experimental: Compound 10 obtained in Example 4 was dissolved in pH 7.4 0.1 M phosphate buffer containing 0.1% DMF as cosolvent to form a 10 μM solution.
Compound 12 obtained in Example 5 was dissolved in pH 7.4 0.1 M phosphate buffer containing 0.1% DMF as cosolvent to form a 1 μM solution.
Compound 14 obtained in Example 6 was dissolved in pH 7.4 0.1 M phosphate buffer containing 0.1% DMF as cosolvent to form a 1 μM solution.
Compound 30 obtained in Example 7 was dissolved in pH 7.4 0.1 M phosphate buffer containing 0.1% DMF as cosolvent to form a 10 μM solution. The absorption spectrum of the 10 μM solution of Compound 30 was measured.

[4] = Detection of peroxynitrite: fluorescence spectra after addition of peroxynitrite; conditions: 10 μM probe, 0.1 M potassium phosphate buffer pH 7.4, measured after 5 minutes, excitation 520 nm
Experimental: Compound 10 obtained in Example 4 was dissolved in DMF to a concentration of 10 mM, and then the solution was diluted to 10μM by 0.1 M potassium phosphate buffer (pH 7.4). Peroxynitrite solution in 0.1 M NaOH was prepared by the method of Keith and Powell (Keith, W. G. & Powell, R. E.; Kinetics of decomposition of peroxynitrous acid; J. Chem. Soc. A, 1969, 1, 90), and its concentration in the stock solutions used was estimated by using an extinction coefficient of 1670 cm^−1 (mol/L)^−1 at 302 nm (Hughes and Nicklin; The chemistry of pernitrites. Part I. Kinetics of decomposition of pernitrious acid; J. Chem. Soc. A, 1968, 2, 450-452). Peroxynitrite stock solution was added into the solution of Compound 10 to provide various final concentrations, like 0, 2, 6, 10, 20, 30, 50 100, and 200 μM. Fluorescence spectra of the solutions were measured after 5 minutes under the same conditions as mentioned above.
Compound 12 obtained in Example 5 was dissolved in DMF to a concentration of 1 mM, and then the solution was diluted to 1 μM by 0.1 M potassium phosphate buffer (pH 7.4). Peroxynitrite solution in 0.1 M NaOH was prepared by the method of Keith and Powell (Keith, W. G. & Powell, R. E.; Kinetics of decomposition of peroxynitrous acid; J. Chem. Soc. A, 1969, 1, 90), and its concentration in the stock solutions used was estimated by using an extinction coefficient of 1670 cm^−1 (mol/L)^−1 at 302 nm (Hughes and Nicklin; The chemistry of pernitrites. Part I. Kinetics of decomposition of pernitrious acid; J. Chem. Soc. A, 1968, 2, 450-452). Peroxynitrite stock solution was added into the solution of Compound 12 to provide various final concentrations, like 0, 1, 2, 3, 4, 5, 6, and 7 μM. Fluorescence spectra of the solutions were measured after 5 minutes under the same conditions as mentioned above.
Compound 30 obtained in Example 7 was dissolved in DMF to a concentration of 10 mM, and then the solution was diluted to 10 μM by 0.1 M potassium phosphate buffer (pH 7.4). Peroxynitrite solution in 0.1 M NaOH was prepared by the method of Keith and Powell (Keith, W. G. & Powell, R. E.; Kinetics of decomposition of peroxynitrous acid; J. Chem. Soc. A, 1969, 1, 90), and its concentration in the stock solutions used was estimated by using an extinction coefficient of 1670 cm^−1 (mol/L)^−1 at 302 nm (Hughes and Nicklin; The chemistry of pernitrites. Part I. Kinetics of decomposition of pernitrious acid; J. Chem. Soc. A, 1968, 2, 450-452). Peroxynitrite stock solution was added into the solution of Compound 30 to provide various final concentrations. Fluorescence spectra of the solutions were measured after 5 minutes under the same conditions as mentioned above.

Row | SMILES | fluorescence after treatment with LPS ([1]; 20 μM probe 1 hr, LPS 1 μg/ml for 4 hrs) | fluorescence observed in the absence of stimulants [1] | fluorescence after treatment with LPS and IFN-γ ([1]; 20 μM probe 1 hr, LPS 1 μg/ml and IFN-γ 50 ng/ml for 4 hrs) | fluorescence after additional stimulation by PMA ([1]; 20 μM probe 1 hr, LPS and IFN-γ 4 hrs, then PMA 10 nM for half an hour) | suitability for detection of peroxynitrite in stimulated macrophages ([1]; stimulated Murine J744.1 macrophages) | fluorescence of the probe itself [2] | absorption maximum [3] | fluorescence intensity after the addition of peroxynitrite [4]
1 | CC(=O)Oc1ccc(N(C)c2ccc3c(c2)Oc2cc(OC(C)=O)ccc2C32OC(=O)c3ccccc32)cc1 (stereo not drawn) [Compound 12a] | induced | very weak fluorescence |  |  |  |  |  | 
2 | CC(=O)Oc1cc2c(cc1Cl)C1(OC(=O)c3ccccc31)c1cc(Cl)c(N(C)c3ccc(CCC(=O)C(F)(F)F)cc3)cc1O2 (stereo not drawn) [Compound 22] |  | very weak fluorescence | induced | strong fluorescence | suitable for the detection of peroxynitrite |  |  | 
3 | CN(c1ccc(O)cc1)c1ccc2c(ccc3c(-c4ccccc4C(=O)O)c4cc(Cl)c(=O)cc-4oc32)c1 [Compound 30] |  |  |  |  |  | may be non-fluorescent | about 540 nm | increases significantly
